{
  "source": "patent US4956504A",
  "about": "“Novel spergualin-related compounds and process for producing the same” (Zaidan Hojin Biseibutsu Kagaku Kenkyu Kai, priority 1986, dated 1990)",
  "key": {"mice": {"test_system": "mice", "assay": "Acute toxicity: administration amount causing acute death to mice", "format": "in vivo", "method": "A compound of the present invention was dissolved in a physiological saline solution in various concentrations. Each of the resulting solutions was intraperitoneally administered to one of CDF1 -SLC female mice (one group: two to three mice) in an amount of 0.1 ml per 10 g of body weight. The highest concentration of present compound in solution was 400 mg/10 ml/kg, and starting from this solution of highest concentration, solutions of lower concentrations were prepared each time at a common ratio of 2. The administration amount of present compound with the lowest concentration solution with which at least one mouse died was taken as an administration amount of acute toxicity.\n(§1) In Tables and 5, a control compound is included. This compound is such that in the general formula [I], X is [drawing 59] R is --CH2 OH and both of R1 and R2 are --H."}, "mouse leukemia L1210": {"test_system": "mouse leukemia L1210", "assay": "Life prolongation effect to mouse leukemia L1210", "format": "in vivo, mouse (CDF1-SLC female)", "settings": "once a day for nine consecutive days, 125 or more is effective, read-out: T/C × 100 (life prolongation percentage); for response vs control in vivo at 0.39 mg/kg: 0.39 mg/kg/day; for response vs control in vivo at 0.78 mg/kg: 0.78 mg/kg/day; for response vs control in vivo at 1.56 mg/kg: 1.56 mg/kg/day; for response vs control in vivo at 3.13 mg/kg: 3.13 mg/kg/day; for response vs control in vivo at 6.25 mg/kg: 6.25 mg/kg/day; for response vs control in vivo at 12.5 mg/kg: 12.50 mg/kg/day; for response vs control in vivo at 25 mg/kg: 25.00 mg/kg/day; for response vs control in vivo at 50 mg/kg: 50.00 mg/kg/day", "method": "3. Life prolongation effect of present compound to mouse leukemia cells L1210 and its toxicity\n1×10^5 /0.2 ml/mouse of mouse leukemia cells L1210 were intraperitoneally transplanted to test groups and a control group of CDF1 -SLC female mice (each group: four mice). A compound of the present invention was dissolved in a physiological saline solution in various concentrations and each of the resulting solutions was administered to one of the test groups once a day for nine consecutive days from the next day of the transplantation, in an amount of 0.1 ml/10 g (body weight)/day. The physiological saline solution was administered to the control group.\nAll the mice of the test groups and the control group were observed from the next day of the L1210 transplantation to examine their days of survival, and the average days of survival (T) of each test group and the average days of survival (C) of the control group were calculated. The life prolongation percentage of the present compound was expressed as (T/C)×100.\nIt is believed that a (T/C)×100 of 125 or more is effective.\nas §1"}, "[1]": {"test_system": "antibody formation (anti-SRBC plaque-forming cells)", "assay": "Inhibitory activity against antibody formation (anti-SRBC plaque-forming cells in spleen)", "format": "in vivo, mouse (CDF1-SLC female)", "settings": "once a day for three consecutive days, minus shows an increase of antibody formation", "method": "(b) Inhibitory activity against antibody formation\nTest groups and a control group of CDF1 -SLC female mice (each group: five mice) were intravenously sensitized with 1×10^8 /0.2 ml of sheep red blood cells (SRBC). A compound of the present invention was dissolved in a physiological saline solution in various concentrations. Each of the resulting solutions was administered to one of the test groups once a day for three consecutive days from the next day of the sensitization, in an amount of 0.1 ml/10 g (body weight)/day. The physiological saline solution was administered to the control group.\nIn the fourth day from the sensitization, all the mice were killed and the number of anti-SRBC plaque-forming cells (PFC) in the spleen cells of each mouse was measured. From this number, the PFC number per 10^6 of spleen cells was calculated. The effect of the present compound was expressed as an inhibition percentage (%) of PFC number of test group as compared with control group. [formula]\nas §1"}, "[2]": {"settings": "intraperitoneal, single, lowest amount with which at least one mouse died"}, "[3]": {"settings": "Administration amount 1.56 mg/kg"}, "[4]": {"settings": "Administration amount 6.25 mg/kg"}},
  "note": "Structures can show the parent of a compound that is named as a salt.",
  "data": [
    {"smiles": "N=C(N)Nc1ccc(CCCC(=O)N[C@@H](CO)C(=O)NCCCCNCCCNC(=O)[C@@H](N)CC(=O)O)cc1", "note": "[Compound No. 7, 10-{N-[4-(4-GP)butanoyl]-L-Ser}-1-L-Asp-1,5,10-TAD trihydrochloride]", "values": [
      {"measurement": "Administration amount causing acute death to mice", "setting": "mice; mouse, in vivo, ip", "value": 100, "unit": "mg/kg"},
      {"measurement": "response vs control in vivo at 0.39 mg/kg", "setting": "mouse leukemia L1210", "value": 96, "unit": "%"},
      {"measurement": "response vs control in vivo at 0.78 mg/kg", "setting": "mouse leukemia L1210", "value": 86, "unit": "%"},
      {"measurement": "response vs control in vivo at 1.56 mg/kg", "setting": "mouse leukemia L1210", "value": 99, "unit": "%"},
      {"measurement": "response vs control in vivo at 3.13 mg/kg", "setting": "mouse leukemia L1210", "value": 152, "unit": "%"},
      {"measurement": "response vs control in vivo at 6.25 mg/kg", "setting": "mouse leukemia L1210", "value": 216, "unit": "%"},
      {"measurement": "response vs control in vivo at 12.5 mg/kg", "setting": "mouse leukemia L1210", "value": 265, "unit": "%"},
      {"measurement": "response vs control in vivo at 25 mg/kg", "setting": "mouse leukemia L1210", "value": 284, "unit": "%"},
      {"measurement": "response vs control in vivo at 50 mg/kg", "setting": "mouse leukemia L1210", "value": 284, "unit": "%"}
    ]},
    {"smiles": "C[C@H](N)C(=O)NCCCNCCCCNC(=O)[C@H](CO)NC(=O)CCCc1ccc(NC(=N)N)cc1", "note": "[Compound No. 8, 10-{N-[4-(4-GP)butanoyl]-L-Ser}-1-L-Ala-1,5,10-TAD trihydrochloride]", "values": [
      {"measurement": "response vs control in vivo at 0.2 mg/kg", "setting": "mouse leukemia L1210; 0.20 mg/kg/day", "value": 109, "unit": "%"},
      {"measurement": "response vs control in vivo at 0.39 mg/kg", "setting": "mouse leukemia L1210", "value": 102, "unit": "%"},
      {"measurement": "response vs control in vivo at 0.78 mg/kg", "setting": "mouse leukemia L1210", "value": 130, "unit": "%"},
      {"measurement": "response vs control in vivo at 1.56 mg/kg", "setting": "mouse leukemia L1210", "value": 164, "unit": "%"},
      {"measurement": "response vs control in vivo at 3.13 mg/kg", "setting": "mouse leukemia L1210", "value": 312, "unit": "%"},
      {"measurement": "response vs control in vivo at 6.25 mg/kg", "setting": "mouse leukemia L1210", "value": 272, "unit": "%"},
      {"measurement": "response vs control in vivo at 12.5 mg/kg", "setting": "mouse leukemia L1210", "value": 290, "unit": "%"},
      {"measurement": "response vs control in vivo at 25 mg/kg", "setting": "mouse leukemia L1210", "value": 362, "unit": "%"}
    ]},
    {"smiles": "N=C(N)Nc1ccc(CCCC(=O)N[C@@H](CO)C(=O)NCCCCNCCCNC(=O)[C@@H](N)CO)cc1", "note": "[Compound No. 9, 10-{N-[4-(4-GP)butanoyl]-L-Ser}-1-L-Ser-1,5,10-TAD trihydrochloride]", "values": [
      {"measurement": "Administration amount causing acute death to mice", "setting": "mice; mouse, in vivo, ip", "value": "> 100", "unit": "mg/kg"},
      {"measurement": "response vs control in vivo at 0.78 mg/kg", "setting": "mouse leukemia L1210", "value": 118, "unit": "%"},
      {"measurement": "response vs control in vivo at 1.56 mg/kg", "setting": "mouse leukemia L1210", "value": 125, "unit": "%"},
      {"measurement": "response vs control in vivo at 3.13 mg/kg", "setting": "mouse leukemia L1210", "value": 155, "unit": "%"},
      {"measurement": "response vs control in vivo at 6.25 mg/kg", "setting": "mouse leukemia L1210", "value": 191, "unit": "%"},
      {"measurement": "response vs control in vivo at 12.5 mg/kg", "setting": "mouse leukemia L1210", "value": 276, "unit": "%"},
      {"measurement": "response vs control in vivo at 25 mg/kg", "setting": "mouse leukemia L1210", "value": 241, "unit": "%"},
      {"measurement": "response vs control in vivo at 50 mg/kg", "setting": "mouse leukemia L1210", "value": 250, "unit": "%"},
      {"measurement": "response vs control in vivo at 100 mg/kg", "setting": "mouse leukemia L1210; 100.00 mg/kg/day", "value": 103, "unit": "%"}
    ]},
    {"smiles": "N=C(N)Nc1ccc(CCCC(=O)N[C@@H](CO)C(=O)NCCCCNCCCNC(=O)[C@@H]2CCCN2)cc1", "note": "[Compound No. 10, 10-{N-[4-(4-GP)butanoyl-L-Ser}-1-L-Pro-1,5,10-TAD trihydrochloride]", "values": [
      {"measurement": "Administration amount causing acute death to mice", "setting": "mice; [2]", "value": 100, "unit": "mg/kg"}
    ]},
    {"smiles": "N=C(N)Nc1ccc(CCCC(=O)N[C@@H](CO)C(=O)NCCCCNCCCNC(=O)[C@@H](O)[C@H](N)Cc2ccccc2)cc1", "note": "[Compound No. 12, 10-{N-[4-(4-GP)butanoyl]-L-Ser}-1-[(2S, 3R)-AHPA]-1,5,10-TAD trihydrochloride]", "values": [
      {"measurement": "Administration amount causing acute death to mice", "setting": "mice; [2]", "value": 100, "unit": "mg/kg"}
    ]},
    {"smiles": "CC(C)C[C@H](NC(=O)[C@@H](N)CC(C)C)C(=O)NCCCNCCCCNC(=O)[C@H](CO)NC(=O)CCCc1ccc(NC(=N)N)cc1", "note": "[Compound No. 13, 10-{N-[4-(4-GP)butanoyl]-L-Ser}-1-L-Leu-L-Leu-1,5,10-TAD trihydrochloride]", "values": [
      {"measurement": "Inhibitory percentage (antibody formation, PFC number vs control group)", "setting": "[1]; [3]", "value": 53, "unit": "%"},
      {"measurement": "Inhibitory percentage (antibody formation, PFC number vs control group)", "setting": "[1]; [4]", "value": 88, "unit": "%"},
      {"measurement": "Administration amount causing acute death to mice", "setting": "mice; mouse, in vivo, ip", "value": 100, "unit": "mg/kg"},
      {"measurement": "response vs control in vivo at 0.39 mg/kg", "setting": "mouse leukemia L1210", "value": 132, "unit": "%"},
      {"measurement": "response vs control in vivo at 0.78 mg/kg", "setting": "mouse leukemia L1210", "value": 149, "unit": "%"},
      {"measurement": "response vs control in vivo at 1.56 mg/kg", "setting": "mouse leukemia L1210", "value": 201, "unit": "%"},
      {"measurement": "response vs control in vivo at 3.13 mg/kg", "setting": "mouse leukemia L1210", "value": 283, "unit": "%"},
      {"measurement": "response vs control in vivo at 6.25 mg/kg", "setting": "mouse leukemia L1210", "value": 247, "unit": "%"},
      {"measurement": "response vs control in vivo at 12.5 mg/kg", "setting": "mouse leukemia L1210", "value": 257, "unit": "%"},
      {"measurement": "response vs control in vivo at 25 mg/kg", "setting": "mouse leukemia L1210", "value": 274, "unit": "%"},
      {"measurement": "response vs control in vivo at 50 mg/kg", "setting": "mouse leukemia L1210", "value": 303, "unit": "%"}
    ]},
    {"smiles": "N=C(N)Nc1ccc(CCCC(=O)N[C@@H](CO)C(=O)NCCCCN(CCCNC(=O)[C@@H](N)c2ccccc2)C(=O)[C@@H](N)c2ccccc2)cc1", "note": "[Compound No. 14, 10-{N-[4-(4-GP)butanoyl]-L-Ser}-1,5-di-L-PhG-1,5,10-TAD trihydrochloride]", "values": [
      {"measurement": "Inhibitory percentage (antibody formation, PFC number vs control group)", "setting": "[1]; [3]", "value": -50, "unit": "%"},
      {"measurement": "Inhibitory percentage (antibody formation, PFC number vs control group)", "setting": "[1]; [4]", "value": -75, "unit": "%"},
      {"measurement": "Administration amount causing acute death to mice", "setting": "mice; mouse, in vivo, ip", "value": 200, "unit": "mg/kg"}
    ]}
  ]
}
